We go through 18 molecules from US20140221340A1 (KYOWA HAKKO KIRIN CO., LTD., priority 2011, published 2014).

The first test has as its target T1, human CCR10 (Homo sapiens, UniProt P46092).
T1 construct: expressed in transfected cells; host or cells: KJMGER8 cell (cell line derived from Namalwa cell); expression induced with 10 nmol/L β-estradiol
T1 sequence (P46092 1-362): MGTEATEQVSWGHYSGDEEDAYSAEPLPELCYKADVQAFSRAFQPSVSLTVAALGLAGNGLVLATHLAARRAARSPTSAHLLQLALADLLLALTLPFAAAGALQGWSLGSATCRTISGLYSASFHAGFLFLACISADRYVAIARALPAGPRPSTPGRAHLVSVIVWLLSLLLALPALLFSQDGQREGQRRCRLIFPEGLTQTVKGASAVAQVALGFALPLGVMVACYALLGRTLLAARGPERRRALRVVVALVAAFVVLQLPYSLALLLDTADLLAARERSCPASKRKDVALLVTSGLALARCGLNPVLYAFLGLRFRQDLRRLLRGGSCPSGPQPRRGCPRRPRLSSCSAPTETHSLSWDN
As to the kind of experiment: Calcium assay of human CCR10 (inhibition of CTACK-induced increase in intracellular calcium ion concentration in hCCR10G16 cells). Format: cell-based. The following applies: test compound 100 nmol/L; human recombinant CTACK; hCCR10G16 cells (KJMGER8/Namalwa-derived, Gα16 co-expressed); FLIPR or FDSS. The method, then:
A CCR10-inducible expression plasmid was produced according to a known method (“Analytical Biochemistry”, 2006, vol. 400, page 163). A DNA encoding human CCR10 was obtained by PCR. Using human chromosomal DNA (100 ng; manufactured by Clontech Laboratories, Inc.) as a template, a synthetic DNA having the sequences shown by SEQ ID NOs: 1 and 2 as a human CCR10 cDNA specific primer, and Pyrobest DNA Polymerase (manufactured by TAKARA SHUZO CO. LTD.) as an enzyme, a DNA encoding human CCR10 was obtained by PCR. As a buffer solution for PCR, the buffer solution attached to the enzyme was diluted 10-fold with deionized water and used. Using Thermal Cycler DNA Engine (manufactured by MJ Research), PCR was performed by 35 cycles of reactions composed of an incubation at 90° C. for 2 min, at 94° C. for 30 seconds, at an anneal temperature of 58° C. for 30 seconds, and at 72° C. for 1 min.
The amplified PCR fragment was cleaved with HindIII and NotI, then a human CCR10 DNA fragment was recovered by an agarose gel electrophoresis method. The fragment was incorporated in between the corresponding restriction enzyme sites (HindIII-NotI) of an inducible expression vector, whereby a human CCR10-inducible expression plasmid were prepared.
Using a primer specific to the sequence of the plasmid (synthetic DNA having the sequences shown by SEQ ID NOs: 3 and 4), the sequence of human CCR10 DNA region was determined. For the determination of the base sequence, DNA sequencer 377 (manufactured by PerkinElmer) and a reaction kit (ABI Prism (registered trade mark) BigDye (registered trade mark) Terminator Cycle Sequencing Ready Reaction kit: manufactured by Applied Biosystems) were used. The sequence of human CCR10 DNA matched with the sequence (NM_016602) registered in GenBank.
Cells for the detection of the signal from human CCR10 by a calcium assay were prepared. Human CCR10-inducible expressing cells whose host cell is KJMGER8 cell (cell line derived from Namalwa cell) were prepared according to a known method (“Analy Biochem”, 2006, vol. 400, page 163). Human CCR10-inducible expression plasmid produced above and Gα16 expression plasmid were co-transfected into KJMGER8 cell by an electroporation method (“Cytotechnology”, 1990, vol. 3, page 133), whereby a signal from human CCR10 could be detected by a calcium assay (hereinafter to be referred to as hCCR10G16 cell). Gα16 expression plasmid was produced by incorporating human Gα16 DNA into expression vector pAMoh (WO03/087366). Induced expression of human CCR10 was performed by cultivating hCCR10G16 cells in the presence of 10 nmol/L β-estradiol (manufactured by Sigma Ltd.) for 24 hr.
Cells expressing human CCR10 induced by the above-mentioned method were suspended in RPMI1640 medium and adjusted to cell density of 1.25×10^6 cells/mL. This mixture was dispensed to a 384 well clear bottom plate (manufactured by Corning Incorporated) at 20 μL/well, and these were incubated at 37° C. for several dozen minutes. A loading buffer prepared according to the protocol attached to FLIPR Calcium 3 assay kit (manufactured by Molecular Device) was dispensed to this plate at 20 μL/well, and the plate was incubated at 37° C. for 60 min. A 33 μmol/L DMSO solution of the test compound was diluted 37-fold with RPMI1640 medium and the resulting solution was added at 5 μL/well, and the mixture was incubated at 37° C. for 30 min. 300 nmol/L human recombinant CTACK (manufactured by R and D Systems) diluted with RPMI1640 medium containing 1 w/v % bovine serum albumin was added at 5 μL/well. Change of the intracellular calcium ion concentration for about 5 min after the addition was measured by FLIPR (manufactured by Molecular Device) or FDSS (manufactured by Hamamatsu Photonics K.K.). The difference between the maximum fluorescence intensity and the minimum fluorescence intensity for 5 min was calculated, and taken as the measurement value (maximum fluorescence intensity−minimum fluorescence intensity). […]
Regarding `Cc1cc(Cl)ccc1Nc1c(C(=O)N2CCC3(CC2)OCc2ccccc23)cnc2c(S(=O)(=O)NC(=O)C3CC3)cnn12` [a-46], the “Inhibitory rate (%) for an increase in calcium ion concentration” value is listed as >100%.
Still for that read-out and setting: next, `Cc1ccc(F)c(Nc2c(C(=O)N3CCC4(CC3)OCc3ccccc34)cnc3c(S(=O)(=O)NC(=O)C4CC4)cnn23)c1` [a-52]: >100%.

The test is the same for the next values; noted with them: test compound 100 nmol/L; human recombinant CTACK; hCCR10G16 cells (KJMGER8/Namalwa-derived, Gα16 co-expressed); FLIPR or FDSS; read-out: Inhibitory rate (%) for an increase in calcium ion concentration.
As to `CC(=O)NS(=O)(=O)c1cnn2c(Nc3cccc(Cl)c3Cl)c(C(=O)N3CCC(c4ccc(F)cc4)CC3)cnc12` [a-38, N-{7-(2,3-Dichlorophenylamino)-6-[4-(4-fluorophenyl)piperidine-1-carbonyl]pyrazolo[1,5-a]pyrimidin-3-ylsulfonyl}acetamide], the inhibition at 0.1 µM is > 100%.
Same read-out and setting: under `CCNC(=O)NS(=O)(=O)c1cnn2c(Nc3ccc(Cl)c(Cl)c3)c(C(=O)N3CCC(c4ccc(F)cc4)CC3)cnc12` [a-39, 7-(3,4-Dichlorophenylamino)-N-(ethylcarbamoyl)-6-[4-(4-fluorophenyl)piperidine-1-carbonyl]pyrazolo[1,5-a]pyrimidine-3-sulfonamide] stands > 100%; under `CCC(=O)NS(=O)(=O)c1cnn2c(Nc3cc(C)c(F)cc3Cl)c(C(=O)N3CCC(c4ccc(F)cc4)CC3)cnc12` [a-40, N-{7-(2-Chloro-4-fluoro-5-methylphenylamino)-6-[4-(4-fluorophenyl)piperidine-1-carbonyl]pyrazolo[1,5-a]pyrimidin-3-ylsulfonyl}propionamide], > 100%; under `Cc1cc(Nc2c(C(=O)N3CCC(c4ccc(F)cc4)CC3)cnc3c(S(=O)(=O)NC(=O)C4CC4)cnn23)c(Cl)cc1F` [a-41, N-{7-(2-Chloro-4-fluoro-5-methylphenylamino)-6-[4-(4-fluorophenyl)piperidine-1-carbonyl]pyrazolo[1,5-a]pyrimidin-3-ylsulfonyl}cyclopropanecarboxamide], > 100%.
As to `CCNC(=O)NS(=O)(=O)c1cnn2c(Nc3cc(C)c(F)cc3Cl)c(C(=O)N3CCC(c4ccc(F)cc4)CC3)cnc12` [a-42, 7-(2-Chloro-4-fluoro-5-methylphenylamino)-N-(ethylcarbamoyl)-6-[4-(4-fluorophenyl)piperidine-1-carbonyl]pyrazolo[1,5-a]pyrimidine-3-sulfonamide], the inhibition at 0.1 µM is > 100%.
The same measure, in the same setting: next, `CCNC(=O)NS(=O)(=O)c1cnn2c(Nc3ccc(F)cc3C)c(C(=O)N3CCC4(CC3)OCc3ccccc34)cnc12` [a-43, 7-(4-Fluoro-2-methylphenylamino)-N-(ethylcarbamoyl)-6-[3H-spiro(isobenzofuran-1,4′-piperidine)-1′-carbonyl]pyrazolo[1,5-a]pyrimidine-3-sulfonamide]: 92%.
With `CCNC(=O)NS(=O)(=O)c1cnn2c(Nc3cc(C)ccc3Cl)c(C(=O)N3CCC4(CC3)OCc3ccccc34)cnc12` [a-44, 7-(2-Chloro-5-methylphenylamino)-N-(ethylcarbamoyl)-6-[3H-spiro(isobenzofuran-1,4′-piperidine)-1′-carbonyl]pyrazolo[1,5-a]pyrimidine-3-sulfonamide], the inhibition at 0.1 µM worked out at 95.2%.
With `CCNS(=O)(=O)c1cnn2c(Nc3cc(C)ccc3Cl)c(C(=O)N3CCC4(CC3)OCc3ccccc34)cnc12` [a-45, N-Ethyl-7-(2-chloro-5-methylphenylamino)-6-[3H-spiro(isobenzofuran-1,4′-piperidine)-1′-carbonyl]pyrazolo[1,5-a]pyrimidine-3-sulfonamide], the inhibition at 0.1 µM was 80.3%.
The same measure, in the same setting: next, `CCNC(=O)NS(=O)(=O)c1cnn2c(Nc3ccc(Cl)cc3C)c(C(=O)N3CCC4(CC3)OCc3ccccc34)cnc12` [a-47, 7-(4-Chloro-2-methylphenylamino)-N-(ethylcarbamoyl)-6-[3H-spiro(isobenzofuran-1,4′-piperidine)-1′-carbonyl]pyrazolo[1,5-a]pyrimidine-3-sulfonamide]: > 100%; `CCC(=O)NS(=O)(=O)c1cnn2c(Nc3ccc(C)cc3F)c(C(=O)N3CCC4(CC3)OCc3ccccc34)cnc12` [a-48, N-{7-(2-Fluoro-4-methylphenylamino)-6-[3H-spiro(isobenzofuran-1,4′-piperidine)-1′-carbonyl]pyrazolo[1,5-a]pyrimidin-3-ylsulfonyl}propionamide]: > 100%; `CCNC(=O)NS(=O)(=O)c1cnn2c(Nc3ccc(C)cc3F)c(C(=O)N3CCC4(CC3)OCc3ccccc34)cnc12` [a-49, 7-(2-Fluoro-4-methylphenylamino)-N-(ethylcarbamoyl)-6-[3H-spiro(isobenzofuran-1,4′-piperidine)-1′-carbonyl]pyrazolo[1,5-a]pyrimidine-3-sulfonamide]: > 100%.
Still for that read-out and setting: next, `CCC(=O)NS(=O)(=O)c1cnn2c(Nc3ccc(F)cc3Cl)c(C(=O)N3CCC4(CC3)OCc3ccccc34)cnc12` [a-50, N-{7-(2-Chloro-4-fluorophenylamino)-6-[3H-spiro(isobenzofuran-1,4′-piperidine)-1′-carbonyl]pyrazolo[1,5-a]pyrimidin-3-ylsulfonyl}propionamide]: > 100%; `CCC(=O)NS(=O)(=O)c1cnn2c(Nc3cc(C)ccc3F)c(C(=O)N3CCC4(CC3)OCc3ccccc34)cnc12` [a-51, N-{7-(2-Fluoro-5-methylphenylamino)-6-[3H-spiro(isobenzofuran-1,4′-piperidine)-1′-carbonyl]pyrazolo[1,5-a]pyrimidin-3-ylsulfonyl}propionamide]: > 100%.
Consider `CCC(=O)NS(=O)(=O)c1cnn2c(Nc3cc(Cl)ccc3Cl)c(C(=O)N3CCC4(CC3)OCc3ccccc34)cnc12` [a-53, N-{7-(2,5-Dichlorophenylamino)-6-[3H-spiro(isobenzofuran-1,4′-piperidine)-1′-carbonyl]pyrazolo[1,5-a]pyrimidin-3-ylsulfonyl}propionamide], for which the inhibition at 0.1 µM is > 100%.
Same read-out and setting: under `O=C(NS(=O)(=O)c1cnn2c(Nc3cc(Cl)ccc3Cl)c(C(=O)N3CCC4(CC3)OCc3ccccc34)cnc12)C1CC1` [a-54, N-{7-(2,5-Dichlorophenylamino)-6-[3H-spiro(isobenzofuran-1,4′-piperidine)-1′-carbonyl]pyrazolo[1,5-a]pyrimidin-3-ylsulfonyl}cyclopropanecarboxamide] stands > 100%; under `CC(=O)NS(=O)(=O)c1cnn2c(Nc3cc(C)ccc3Cl)c(C(=O)N3CCC4(CC3)OCc3ccccc34)cnc12` [a-55, N-{7-(2-Chloro-5-methylphenylamino)-6-[3H-spiro(isobenzofuran-1,4′-piperidine)-1′-carbonyl]pyrazolo[1,5-a]pyrimidin-3-ylsulfonyl}acetamide], > 100%.
